The record followed here is patent US6723841B2, “Corticotropin-releasing factor2 receptors” (priority 1994, dated 2004).

Holding throughout (type): cell-based
Assay [1] relates to human CRF2α receptor. Nature of the assay: cAMP assay (adenylate cyclase stimulation) in cells transfected with CRF2α receptor. As to conditions: cAMP production, read-out: effective concentration of one-half maximal adenylate cyclase stimulation (EC50), human CRF2α receptor. How it is done: (§1) For agonist testing, compounds are added to wells with buffer only in order to identify compounds with intrinsic activity. […] Compounds are then assessed for their ability to inhibit the CRF-stimulated cAMP production in the transfected cells. Briefly, cells are plated and grown in DMEM containing 10% fetal bovine serum for 2-4 days in 24-well plates at 37° C. On the day of assay, the medium is removed by vacuum aspiration and 100 μl of DMEM, 10 mM MgCl2, 1 mM isobutylmethylxanthine (a phosphodiesterase inhibitor to inhibit the breakdown of cAMP produced) and 0.1% BSA (pH 7.2) are added to each well. CRF, related peptides and organic test molecules are added to individual wells. The plates are incubated at 37° C. for a period of 1 hour. Following incubation, the wells are aspirated, rinsed once with PBS and aspirated again. 300 μl of 95% Ethanol and 20 mM HCl (EtOH/HCl) are then added to each well and the plates incubated at −20° C. overnight to extract the produced cAMP. The EtOH/HCl is removed, placed in 1.5 ml polypropylene eppendorf tubes and the wells washed with an additional 200 μl of EtOH/HCl and pooled with the initial sample. All samples are dried in a Speed-Vac (Savant Instruments, Farmingdale N.Y.) and either stored at −20° C. until use or reconstituted with 500 μl of sodium acetate buffer pH 7.5 and assayed immediately for cAMP concentration using a radioimmunoassay kit from Biomedical Technologies Inc. (Stoughton Mass.) according to manufacturers instructions.
The above results have been formulated below in Table I, wherein the effective concentration of one-half maximal adenylate cyclase stimulation (EC50) are presented.
Background: cAMP levels reflect the balance of adenylyl cyclase and phosphodiesterase activity.

Assay [2] deals with T1, human CRF1 receptor (Homo sapiens, UniProt P34998).
T1 construct: expressed in transfected cells
T1 sequence (P34998 24-415): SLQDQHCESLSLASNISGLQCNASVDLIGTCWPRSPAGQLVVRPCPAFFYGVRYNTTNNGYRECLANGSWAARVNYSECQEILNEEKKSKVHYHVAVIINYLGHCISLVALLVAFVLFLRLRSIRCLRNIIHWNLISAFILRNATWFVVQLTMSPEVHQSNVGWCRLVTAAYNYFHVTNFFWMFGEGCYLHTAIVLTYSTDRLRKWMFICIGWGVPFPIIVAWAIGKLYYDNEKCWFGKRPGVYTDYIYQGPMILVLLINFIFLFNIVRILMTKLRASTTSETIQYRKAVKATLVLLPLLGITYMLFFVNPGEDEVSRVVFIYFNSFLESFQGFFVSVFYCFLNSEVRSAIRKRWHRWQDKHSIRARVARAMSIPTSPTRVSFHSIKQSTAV
The experiment in a line: cAMP assay (adenylate cyclase stimulation) in cells transfected with CRF1 receptor. Particulars: for cAMP accumulation in cells transfected with the CRF1 receptor: FIG. 3; for EC50: transfected cells, cAMP production, read-out: effective concentration of one-half maximal adenylate cyclase stimulation (EC50), human CRF1 receptor.
Method: (§2) For agonist testing, compounds are added to wells with buffer only in order to identify compounds with intrinsic activity. […] Briefly, cells are plated and grown in DMEM containing 10% fetal bovine serum for 2-4 days in 24-well plates at 37° C. On the day of assay, the medium is removed by vacuum aspiration and 100 μl of DMEM, 10 mM MgCl2, 1 mM isobutylmethylxanthine (a phosphodiesterase inhibitor to inhibit the breakdown of cAMP produced) and 0.1% BSA (pH 7.2) are added to each well. […] The plates are incubated at 37° C. for a period of 1 hour. Following incubation, the wells are aspirated, rinsed once with PBS and aspirated again. 300 μl of 95% Ethanol and 20 mM HCl (EtOH/HCl) are then added to each well and the plates incubated at −20° C. overnight to extract the produced cAMP. The EtOH/HCl is removed, placed in 1.5 ml polypropylene eppendorf tubes and the wells washed with an additional 200 μl of EtOH/HCl and pooled with the initial sample. All samples are dried in a Speed-Vac (Savant Instruments, Farmingdale N.Y.) and either stored at −20° C. until use or reconstituted with 500 μl of sodium acetate buffer pH 7.5 and assayed immediately for cAMP concentration using a radioimmunoassay kit from Biomedical Technologies Inc. (Stoughton Mass.) according to manufacturers instructions.

Assay [3] concerns the target T2, rat CRF2α receptor (Rattus norvegicus, UniProt P47866).
T2 construct: A full-length CRF2 receptor clone in pBluescriptSK- is isolated from the phage clone described above; expressed in transfected cells; host or cells: COS-7
The experiment in a line: cAMP accumulation in cells transfected with rat CRF2α receptor (FIG. 4). How it is done: as §1, with “All samples are dried in a Speed-Vac (Savant Instruments, Farmingdale N.Y.) and either stored at −20° C. until use or reconstituted with 500 μl of sodium acetate buffer pH 7.5 and assayed immediately for cAMP concentration using a radioimmunoassay kit from Biomedical Technologies Inc. (Stoughton Mass.) according to manufacturers instructions.” left out
In FIG. 4, the rat CRF2α receptor has been transfected into cells and cAMP accumulation is measured in response to the same drugs as shown in FIG. 3. […]

The target of assay [4] is T3, rat CRF2β receptor (Rattus norvegicus, UniProt P47866).
T3 construct: A full-length CRF2 receptor clone in pBluescriptSK- is isolated from the phage clone described above; expressed in transfected cells; host or cells: COS-7
T3 sequence (P47866 1-431 isoform P47866-2): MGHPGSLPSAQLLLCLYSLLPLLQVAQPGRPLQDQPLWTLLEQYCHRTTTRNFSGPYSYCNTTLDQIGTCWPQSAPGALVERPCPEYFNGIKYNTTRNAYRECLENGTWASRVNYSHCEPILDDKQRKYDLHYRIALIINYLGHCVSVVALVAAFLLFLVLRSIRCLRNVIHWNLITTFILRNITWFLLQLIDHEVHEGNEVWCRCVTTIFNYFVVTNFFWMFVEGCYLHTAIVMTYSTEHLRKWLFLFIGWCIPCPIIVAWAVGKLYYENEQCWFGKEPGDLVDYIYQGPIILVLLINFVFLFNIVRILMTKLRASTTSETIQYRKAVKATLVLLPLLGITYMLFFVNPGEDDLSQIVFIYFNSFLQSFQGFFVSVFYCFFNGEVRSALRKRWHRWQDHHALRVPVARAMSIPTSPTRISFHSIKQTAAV
The experiment in a line: cAMP assay (adenylate cyclase stimulation) in cells transfected with CRF2β receptor. As to conditions: cAMP production, read-out: effective concentration of one-half maximal adenylate cyclase stimulation (EC50), rat CRF2β receptor.
Method: as §2

Ends that are not written are not given here.

T2 sequence (P47866 whole entry): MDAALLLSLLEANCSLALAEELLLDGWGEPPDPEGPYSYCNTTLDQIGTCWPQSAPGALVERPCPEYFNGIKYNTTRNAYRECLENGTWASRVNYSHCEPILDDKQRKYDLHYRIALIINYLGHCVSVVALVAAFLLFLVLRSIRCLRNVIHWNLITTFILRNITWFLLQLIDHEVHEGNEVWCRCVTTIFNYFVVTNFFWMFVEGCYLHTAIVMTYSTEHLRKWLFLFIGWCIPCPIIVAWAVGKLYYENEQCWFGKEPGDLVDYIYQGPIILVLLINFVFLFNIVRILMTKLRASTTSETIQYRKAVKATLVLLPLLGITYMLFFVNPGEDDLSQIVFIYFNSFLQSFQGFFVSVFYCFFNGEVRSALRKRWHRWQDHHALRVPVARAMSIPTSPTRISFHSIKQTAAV

For `CC[C@H](C)[C@H](NC(=O)[C@H](CO)NC(=O)[C@H](CC(N)=O)NC(=O)[C@H](CC(C)C)NC(=O)[C@H](Cc1ccc(O)cc1)NC(=O)[C@H](CCCCN)NC(=O)[C@H](CCCCN)NC(=O)[C@@H](NC(=O)[C@H](C)NC(=O)[C@H](CCSC)NC(=O)[C@H](CCC(N)=O)NC(=O)[C@H](CCCCN)NC(=O)[C@H](CCCNC(=N)N)NC(=O)[C@H](CC(C)C)NC(=O)[C@H](CCCNC(=N)N)NC(=O)[C@@H](NC(=O)[C@H](Cc1ccc(O)cc1)NC(=O)[C@H](CC(N)=O)NC(=O)[C@H](CC(=O)O)NC(=O)[C@@H](NC(=O)[C@H](Cc1ccccc1)NC(=O)[C@@H](NC(=O)[C@H](C)NC(=O)[C@H](CC(=O)O)NC(=O)[C@H](CO)NC(=O)[C@@H](N)Cc1c[nH]cn1)C(C)C)[C@@H](C)O)[C@@H](C)O)C(C)C)C(=O)N[C@@H](CC(C)C)C(=O)N[C@@H](CC(N)=O)C(N)=O` [VIP], the EC50 in assay [1] is greater than 1000 nM. “NDDPPISIDLTFHLLRNMIEMARIENEREQAGLNRKYLDEV-NH2 (C-terminus assumed) [Urotensin I]”: the “cAMP accumulation in cells transfected with the CRF1 receptor” value in assay [2] is listed as “dose-dependent increase in cAMP”. For the same compound, in assay [3], the “relative potency at stimulating cAMP, rat CRF2α receptor” value is on record as “more potent than either oCRF or r/hCRF”. Further, the EC50 in assay [1] was 2 nM.

As for oCRF, the “cAMP accumulation in cells transfected with the CRF1 receptor” value in assay [2] is on record as “dose-dependent increase in cAMP”. The EC50 in assay [1] worked out at 80 nM. Take “ISLDLTFHLLREVLEMARAEQLAQQAHS [r/hCRF(6-33)]”: the EC50 in assay [2] and in assay [1] was greater than 1000 nM each time.

As to `CC[C@H](C)[C@H](NC(=O)[C@@H](NC(=O)[C@H](CC(=O)O)NC(=O)[C@H](CC(C)C)NC(=O)[C@H](CC(C)C)NC(=O)[C@H](CC(C)C)NC(=O)[C@H](CCCNC(=N)N)NC(=O)[C@H](CC(N)=O)NC(=O)[C@H](CC(N)=O)NC(=O)[C@H](C)NC(=O)[C@H](C)NC(=O)[C@H](CCC(N)=O)NC(=O)[C@H](CCC(N)=O)NC(=O)[C@H](CCCCN)NC(=O)[C@H](CCC(=O)O)NC(=O)[C@H](CCCCN)NC(=O)[C@H](CCC(=O)O)NC(=O)[C@H](CCC(N)=O)NC(=O)[C@H](CCCCN)NC(=O)[C@H](CCC(=O)O)NC(=O)[C@@H](NC(=O)[C@H](CCC(=O)O)NC(=O)[C@@H](NC(=O)[C@H](CCSC)NC(=O)[C@H](CCCCN)NC(=O)[C@H](CCCNC(=N)N)NC(=O)[C@H](CC(C)C)NC(=O)[C@H](CC(C)C)NC(=O)[C@H](CCC(=O)O)NC(=O)[C@H](CC(C)C)NC(=O)[C@H](CO)NC(=O)[C@H](CC(C)C)NC(=O)[C@H](CC(=O)O)NC(=O)[C@@H](NC(=O)[C@H](CO)NC(=O)[C@@H](NC(=O)[C@@H]1CCCN1C(=O)[C@@H]1CCCN1C(=O)CNC(=O)[C@@H]1CCC(=O)N1)[C@@H](C)CC)[C@@H](C)CC)[C@@H](C)CC)[C@@H](C)CC)[C@@H](C)O)C(N)=O` [Sauvagine], the EC50 in assay [4] worked out at 0.4 nM; in assay [1], 0.5 nM. The “relative potency at stimulating cAMP, rat CRF2α receptor” value in assay [3] is recorded as “more potent than either oCRF or r/hCRF”. With “d-Phe r/hCRF(12-41): CRF receptor antagonist peptide”, the EC50 in assay [2] and in assay [1] was greater than 1000 nM each time. In the case of `CC[C@H](C)[C@H](NC(=O)[C@H](C)NC(=O)[C@H](CC(=O)O)NC(=O)[C@H](C)NC(=O)[C@@H](N)Cc1ccc(O)cc1)C(=O)N[C@@H](Cc1ccccc1)C(=O)N[C@H](C(=O)N[C@@H](CC(N)=O)C(=O)N[C@@H](CO)C(=O)N[C@@H](Cc1ccc(O)cc1)C(=O)N[C@@H](CCCNC(=N)N)C(=O)N[C@@H](CCCCN)C(=O)N[C@H](C(=O)N[C@@H](CC(C)C)C(=O)NCC(=O)N[C@@H](CCC(N)=O)C(=O)N[C@@H](CC(C)C)C(=O)N[C@@H](CO)C(=O)N[C@@H](C)C(=O)N[C@@H](CCCNC(=N)N)C(=O)N[C@@H](CCCCN)C(=O)N[C@@H](CC(C)C)C(=O)N[C@@H](CC(C)C)C(=O)N[C@@H](CCC(N)=O)C(=O)N[C@@H](CC(=O)O)C(=O)N[C@H](C(=O)N[C@@H](CCSC)C(=O)N[C@@H](CO)C(=O)N[C@@H](CCCNC(=N)N)C(=O)N[C@@H](CCC(N)=O)C(=O)N[C@@H](CCC(N)=O)C(=O)NCC(=O)N[C@@H](CCC(=O)O)C(=O)N[C@@H](CO)C(=O)N[C@@H](CC(N)=O)C(=O)N[C@@H](CCC(N)=O)C(=O)N[C@@H](CCC(=O)O)C(=O)N[C@@H](CCCNC(=N)N)C(=O)NCC(=O)N[C@@H](C)C(=O)N[C@@H](CCCNC(=N)N)C(=O)N[C@@H](C)C(=O)N[C@@H](CCCNC(=N)N)C(=O)N[C@@H](CC(C)C)C(N)=O)[C@@H](C)CC)C(C)C)[C@@H](C)O` [hGRF], the EC50 in assay [2] and in assay [1] was greater than 1000 nM each time.

In the case of “DLTFHLLREMLEMAKAEQEAEQAALNRLLLEEA-NH2 (C-terminus assumed) [α-helical oCRF(9-41)]”, in assay [1], the EC50 was greater than 1000 nM. As to `N=C(N)NCCC[C@H](NC(=O)[C@@H]1CCCN1C(=O)[C@@H]1CSSC[C@H](N)C(=O)N[C@@H](Cc2ccc(O)cc2)C(=O)N[C@@H](Cc2ccccc2)C(=O)N[C@@H](CCC(N)=O)C(=O)N[C@@H](CC(N)=O)C(=O)N1)C(=O)NCC(N)=O` [AVP], the EC50 in assay [1] is greater than 1000 nM.
